Columns and labels:
[1] = test system: β3-positive cells (FG-β3, MDA-MB231, FG-R); test: Soft agar anchorage independent growth, colonies counted; assay type: cell-based, human; details: erlotinib (0.5 μM), Lenalidomide (2 μM), PS-1145 (1 μM) alone, 10 to 15 days
Description: Then, the soft agar were stained with crystal violet and the colonies were counted manually.

[2] = test system: subcutaneous β3-positive tumors (FG-β3, FG-R); test: Subcutaneous β3-positive tumor xenografts; details: monotherapy; lenalidomide 25 mg/kg/day, bortezomib 0.25 mg/kg
Experimental: To generate subcutaneous tumors, FG-β3, FG-R (after erlotinib resistance) and HCC-827 human carcinoma cells (5×10^6 tumor cells in 200 μl of PBS) were injected subcutaneously to the left or right flank of 6-8-week-old female nude mice. Tumors were measured every 2-3 days with calipers until they were harvested at day 10, 16 or after acquired resistance.
(B) Left, mice bearing subcutaneous β3-positive tumors (FG-β3) were treated with vehicle, erlotinib (25 mg/kg/day), lenalidomide (25 mg/kg/day) or the combination of erlotinib and lenalidomide. Tumor dimensions are reported as the fold change relative to size of the same tumor on Day 1. […] Right, mice bearing subcutaneous β3-positive tumors (FG-R) after acquired resistance to erlotinib were treated with vehicle, erlotinib (25 mg/kg/day), bortezomib (0.25 mg/kg), the combination of erlotinib and bortezomib.

[3] = test system: FG and PANC-1 cells expressing or lacking integrin β3; test: Soft agar / tumorsphere 3D growth, drug dose response (Example 3); assay type: cell-based, human; details: cells growing in 3D
Experimental: Tumorsphere assay was performed as previously described. Soft agar formation assays were performed essentially as described previously. […] The media was replaced with fresh inhibitor 2/5 times a week. […] (a) Effect of integrin β3 expression (ectopic expression for FG and integrin β3-specific knockdown for PANC-1) cells on drug treatment response. Cells were treated with a dose response of gemcitabine, cisplatin, erlotinib, lapatinib and linsitinib. […] Tumor volumes are expressed as mean±SEM. *P<0.05. […] Results are expressed as % tumor weight compared to vehicle control. *P<0.05. […] HCC827 cells were treated with vehicle control or erlotinib (12.5 mg/kg/day) until acquired resistance. […] Data are mean±SE; **P<0.001. […] Scale bar, 50 μm. (h) Limiting dilution in vivo determining the frequency of tumor-initiating cells for HCC827 vehicle-treated (vehicle) and erlotinib-treated tumors from (erlotinib resistant non-sorted) (e). The HCC827 erlotinib-treated tumors have been digested and sorted in two groups: the integrin β3- and the integrin β3+ population.

FG and FG-β3 cells = test: Tumor sphere formation assay of FG and FG-β3 cells; assay type: cell-based, human; details: FG-β3 versus FG
Experimental: Tumor spheres formation assays were performed essentially as described previously^17. Briefly, cells were seeded at 1000 to 2000 cells per well and grown for 12 days to 3 weeks. Cells were treated with vehicle (DMSO), erlotinib (10 nM to 5 μM), lapatinib (10 nM to 5 μM), gemcitabine (0.001 nM to 5 μM), OSI-906 (10 nM to 5 μM), lenalidomide (10 nM to 5 μM), or cisplatin (10 nM to 5 μM), diluted in DMSO. The media was replaced with fresh inhibitor every day for erlotinib, lapatinib, lenalidomide and 3 times a week for cisplatin and gemcitabine. Colonies were stained with crystal violet and scored with an Olympus SZH10 microscope. Survival curves were generated at least with five concentration points.

[4] = test system: β3-negative and β3-positive cells; test: Tumorsphere assay of β3-negative and β3-positive cells (Example 2); assay type: cell-based, human; details: β3-positive versus β3-negative cells
Experimental: Tumorsphere assay was performed as previously described (10). Cells were treated with vehicle (DMSO), erlotinib (10 nM to 5 μM), lapatinib (10 nM to 5 μM), gemcitabine (0.001 nM to 5 μM), OSI-906 (10 nM to 5 μM), lenalidomide (1 μM), cisplatin (10 nM to 5 μM), or bortezomib (4 nM) diluted in DMSO. The media was replaced with fresh inhibitor 2/6 times a week. Survival curves were generated at least with five concentration points.
(D) Representative photographs of crystal violet-stained tumorspheres of β3-negative and β3-positive cells after erlotinib, OSI-906, gemcitabine and cisplatin treatment. (E) Effect of integrin β3 expression on lapatinib, OSI-906, cisplatin and gemcitabine n=3; mean±SEM.

EGFR phosphorylation = test: Immunoblot analysis of orthotopic FG tumor lysates; assay type: in vivo, mice; details: after 10 days of erlotinib
Experimental: Error bars represent s.d. […] Scale bar, 50 μm. […] Scale bar, 100 μm.
All mouse experiments were carried out in accordance with approved protocols from the UCSD animal subjects committee and with the guidelines set forth in the NIH Guide for the Care and Use of Laboratory Animals. Tumors were generated by injection of FG human pancreatic carcinoma cells (10^6 tumor cells in 30 μL of sterile PBS) into the tail of the pancreas of 6-8 week old male immune compromised nu/nu mice.

[5] = test system: H441 human lung adenocarcinoma orthotopic tumors; test: Orthotopic lung cancer xenograft model; assay type: in vivo, mice
Description: (§1) (a) Flow cytometric quantification of cell surface markers after 3 weeks treatment with erlotinib (pancreatic and colon cancer cells) or lapatinib (breast cancer cells). (b) Flow cytometric analysis of αvβ3 expression in FG and Miapaca-2 cells following erlotinib. Error bars represent s.d. (n=3 independent experiments). (c) Top, immunofluorescence staining of integrin αvβ3 in tissue specimens obtained from orthotopic pancreatic tumors treated with vehicle (n=3) or erlotinib (n=4). Scale bar, 50 μm. Bottom, Integrin αvβ3 expression was quantified as ratio of integrin αvβ3 pixel area over nuclei pixel area using Metamorph (*P=0.049 using Mann-Whitney U test). (d) Right, intensity (scale 0 to 3) of β3 expression in mouse orthotopic lung tumors treated with vehicle (n=8) or erlotinib (n=7). Left, immunohistochemical staining of β3. Scale bar, 100 μm.

H1650 cells = test: Erlotinib response of human carcinoma cell lines in 3D culture; assay type: cell-based; details: wildtype KRAS and mutant EGFR
Experimental: (§2) Tumorsphere assay was performed as previously described (10).
(§3) (C) Percentage of integrin β3 positive cells in parental lines vs. after 3 or 8 weeks treatment with erlotinib. (D) Quantification of integrin β3 (ITGβ3) gene expression in human lung cancer biopsies from patients from the BATTLE Study (18) who were previously treated with an EGFR inhibitor and progressed (n=27), versus patients who were EGFR inhibitor naïve (n=39). (*P=0.04 using a Student's t test). (E) Paired human lung cancer biopsies obtained before and after erlotinib resistance were immunohistochemically stained for integrin β3. Scale bar, 50 μm. (F) Right, effect of integrin β3 knockdown on erlotinib resistance of β3-positive cells. Cells were treated with 0.5 μM of erlotinib. […] Left, effect of integrin β3 ectopic expression on erlotinib resistance in FG and H441 cells. […] (G) Right, effect of integrin β3 knockdown on erlotinib resistance in vivo, A549 shCTRL and A549 sh integrin β3 (n=8 per treatment group) were treated with erlotinib (25 mg/kg/day) or vehicle during 16 days. Results are expressed as average of tumor volume at day 16. *P<0.05. Left, orthotopic FG and FG-β3 tumors (>1000 mm^3; n=5 per treatment group) were treated for 30 days with vehicle or erlotinib. Results are expressed as % tumor weight compared to vehicle control. *P<0.05.

FG, H441, and CAPAN1 = test: as above; assay type: cell-based; details: tumor cell lines with oncogenic KRAS
Experimental: as §2, §3

[6] = test system: phosphorylated TBK1 and NF-κB; test: Immunoblot analysis of RalB effectors in cells grown in suspension; assay type: cell-based, human; details: for levels of phosphorylated TBK1 and NF-κB: erlotinib (0.5 μM)
Experimental: Immunoblot analysis of FG, FG-β3 and FG-β3 stably expressing non-silencing or RalB-specific ShRNA, grown in suspension and treated with erlotinib (0.5 μM). pTBK1 refers to phospho-S172 TBK1, p-p65 NF-κB refers to phospho-p65 NF-κB S276, pFAK refers to phospho-FAK Tyr 861. Data are representative of three independent experiments. (b) Tumor spheres formation assay of FG cells ectopically expressing vector control, WT NF-κB FLAG tagged or constitutively active S276D NF-κB FLAG tagged constructs treated with erlotinib (0.5 μM). Error bars represent s.d. (n=3 independent experiments). *P<0.05, **P<0.001, NS=not significant. Immunoblot analysis showing NF-κB WT and S276D NF-κB FLAG transfection efficiency. (c) Tumor spheres formation assay of FG-β3 treating with non-silencing (shCTRL) or NF-κB-specific shRNA and exposed to erlotinib (0.5 μM). Error bars represent s.d. (n=3 independent experiments). *P<0.05, NS=not significant. (d) Dose response in FG-β3 cells treated with erlotinib (10 nM to 5 μM), lenalidomide (10 nM to 5 μM) or a combination of erlotinib (10 nM to 5 μM) and lenalidomide (1 μM). Error bars represent s.d. (n=3 independent experiments). *P<0.05, NS=not significant. (e) Model depicting the integrin αvβ3-mediated EGFR TKI resistance and conquering EGFR TKI resistance pathway and its downstream RalB and NF-κB effectors.
Cells were lysed in either RIPA lysis buffer (50 mM Tris pH 7.4, 100 mM NaCL, 2 mM EDTA, […], 10% Triton, 0.1% SDS) or Triton lysis buffer (50 mM Tris pH 7.5, 150 mN NaCl, 1 mM EDTA, 5 mM MgCl2, 10% Glycerol, 1% Triton) supplemented with complete protease and phosphatase inhibitor mixtures (Roche) and centrifuged at 13,000 g for 10 min at 4° C. Protein concentration was determined by BCA assay. […]
(A) Effect of RalB knockdown on erlotinib resistance of β3-positive epithelial cancer cell lines. […] Results are expressed as % of tumor weight changes after erlotinib treatment compared to vehicle. **P<0.01. […]

PANC-1 cells = test: Tumor sphere formation assay, erlotinib dose-response; assay type: cell-based, human; details: knockdown of αvβ3 in PANC-1 cells
Description: as §1
Tumor spheres formation assays were performed essentially as described previously^17. Briefly, cells were seeded at 1000 to 2000 cells per well and grown for 12 days to 3 weeks. […] The media was replaced with fresh inhibitor every day for erlotinib, lapatinib, lenalidomide and 3 times a week for cisplatin and gemcitabine. Colonies were stained with crystal violet and scored with an Olympus SZH10 microscope.

[7] = test system: stage IV non-small cell lung cancer; test: Serial biopsies from NSCLC patients on erlotinib therapy; assay type: in vivo, human
Description: Tumor biopsies from University of California, San Diego (UCSD) Medical Center stage IV non-small cell lung cancer patients were obtained before erlotinib treatment and 3 patients before and after erlotinib resistance. All biopsies are from lung or pleural effusion. […] This work was approved by the UCSD Institutional Review Board (IRB).

Structure (SMILES): Nc1cccc2c1CN(C1CCC(=O)NC1=O)C2=O (racemic) [lenalidomide, (RS)-3-(4-amino-1-oxo-3H-isoindol-2-yl)piperidine-2,6-dione]
- response of β3-positive cells, tumorsphere formation in soft agar [1]: resistant
- tumor growth [2]: failed to impact tumor growth

Structure (SMILES): C[C@]1(O)C[C@@H](c2nc(-c3ccc4ccc(-c5ccccc5)nc4c3)c3c(N)nccn32)C1 [OSI-906]
- effect of β3 expression on drug response [3]: reduced sensitivity
- effect of αvβ3 expression on drug resistance (FG and FG-β3 cells): induced resistance

Structure (SMILES): O=C(Nc1cc(Cl)cc2c1[nH]c1cnccc12)c1cccnc1 [PS-1145]
- response of β3-positive cells, tumorsphere formation in soft agar [1]: resistant

Structure (SMILES): CC(C)C[C@H](NC(=O)[C@H](Cc1ccccc1)NC(=O)c1cnccn1)B(O)O [bortezomib]
- tumor growth [2]: failed to impact tumor growth

Structure (SMILES): N.N.[Cl][Pt][Cl] [cisplatin]
- effect of integrin β3 expression on resistance [4]: did not impact resistance
- effect of β3 expression on drug response [3]: did not impact the response
- effect of αvβ3 expression on drug resistance (FG and FG-β3 cells): failed to protect cells

Structure (SMILES): C#Cc1cccc(Nc2ncnc3cc(OCCOC)c(OCCOC)cc23)c1 [erlotinib, N-(3-ethynylphenyl)-6,7-bis(2-methoxyethoxy) quinazolin-4-amine]
- EGFR phosphorylation in tumor lysates (EGFR phosphorylation): suppressed EGFR phosphorylation
- response of β3-positive cells, tumorsphere formation in soft agar [1]: resistant
- time treated until moribund ([5]; 100 mg/kg/day by oral gavage, start 3 weeks after tumor cell injection): ~58 days
- tumor response to systemic erlotinib ([5]; systemic erlotinib treatment for 7-8 weeks): developed resistance
- erlotinib sensitivity (H1650 cells): resistant
- erlotinib sensitivity (FG, H441, and CAPAN1): sensitive
- effect of β3 expression on drug response [3]: reduced sensitivity
- activation of TBK1 and NF-κB ([6]; FG and FG-β3, erlotinib (0.5 μM), Example 2): decreased the activation of these effectors only in the absence of integrin β3
- levels of phosphorylated TBK1 and NF-κB ([6]; αvβ3 negative cells): reduced levels of phosphorylated TBK1 and NF-κB
- levels of phosphorylated TBK1 and NF-κB ([6]; β3-positive cells): remained activated
- increase in tumor cell sensitivity to erlotinib (PANC-1 cells): 10 fold
- time to disease progression ([7]; Patient 1): 920 days
- time to disease progression ([7]; Patient 2): 92 days
- time to disease progression ([7]; Patient 3): 120 days
- initial clinical response ([7]; all 3 patients): initial partial response

Structure (SMILES): Nc1ccn([C@@H]2O[C@H](CO)[C@@H](O)C2(F)F)c(=O)n1 [gemcitabine]
- effect of integrin β3 expression on resistance [4]: did not impact resistance
- effect of β3 expression on drug response [3]: did not impact the response
- effect of αvβ3 expression on drug resistance (FG and FG-β3 cells): failed to protect cells

Structure (SMILES): CS(=O)(=O)CCNCc1ccc(-c2ccc3ncnc(Nc4ccc(OCc5cccc(F)c5)c(Cl)c4)c3c2)o1 [lapatinib]
- effect of β3 expression on drug response [3]: reduced sensitivity

From patent US9903855B2, “Assays for screening for or identifying an agent or molecule that can block or inhibit AVB3 integrin from forming a complex with KRAS” (THE REGENTS OF THE UNIVERSITY OF CALIFORNIA, priority 2012, dated 2018)
